Activity calls are given as the source filed them. No rule for the calls is given here.
These compounds were tested against Sphingosine 1-phosphate receptor 1 (Homo sapiens) (UniProt P21453) (assay: direct activation of human S1P1 – cell-based, agonist mode, 60K MLSMR set, dose response (AID 468)). Details: S1P1 agonist cell-based assay.
Sequence of Sphingosine 1-phosphate receptor 1 (Homo sapiens) (P21453 whole entry, looked up): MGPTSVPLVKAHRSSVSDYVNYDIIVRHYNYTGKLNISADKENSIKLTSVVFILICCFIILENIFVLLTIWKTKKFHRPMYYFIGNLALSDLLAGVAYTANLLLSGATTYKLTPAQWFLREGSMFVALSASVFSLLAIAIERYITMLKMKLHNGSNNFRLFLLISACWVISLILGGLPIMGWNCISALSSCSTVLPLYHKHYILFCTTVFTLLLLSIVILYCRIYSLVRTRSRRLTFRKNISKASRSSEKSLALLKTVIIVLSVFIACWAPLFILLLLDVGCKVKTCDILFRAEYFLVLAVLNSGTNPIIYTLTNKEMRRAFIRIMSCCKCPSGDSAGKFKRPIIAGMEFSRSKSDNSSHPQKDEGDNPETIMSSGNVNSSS
With `C/C(N)=C(/C#N)C(=O)CSc1nnc(SCc2ccc(Cl)cc2)s1` the EC50 was 8.95 µM.
`CC1=C(C(=O)OCc2ccc3c(c2)OCO3)C(c2ccc(F)cc2)NC(=O)N1` (stereo not drawn) was tested, and the EC50 was 0.437 µM.
`Cc1[nH]nc2c1C1(C(=O)N(Cc3ccc(Cl)cc3)c3ccccc31)C(C#N)=C(N)O2` (stereo not drawn) was tested, and the EC50 was “inactive”.
With `COc1ccc(N2C(=O)CC(Sc3ncn[nH]3)C2=O)c(OC)c1` (stereo not drawn) the EC50 was “inactive”.
With `COc1ccc(/C=N/O)cc1COc1ccc(NC(C)=O)cc1` the EC50 was > 95 µM (inactive).
With `CCC(=NCc1ccc2c(c1)OCO2)c1c(O)n(C2CCCCC2)c(=O)[nH]c1=O` the EC50 was 6.81 µM.
`O=C1C2C3C=CC(CO)(O3)C2C(=O)N1c1ccccc1-c1ccccc1` (stereo not drawn) showed an EC50 of 5.47 µM.
`CC1(C)CC(=O)C(C=Nc2ccc3[nH]ncc3c2)=C(O)C1` showed an EC50 of 5.07 µM.
With `CCC(=NCCOc1ccc(Cl)cc1)c1c(O)n(C)c(=O)n(C)c1=O` the EC50 was 5.04 µM.
In the case of `CCCCc1ccc(C2C(C#N)=C(N)SC(N)=C2C#N)s1`, the EC50 is reported as “inactive”.
`COc1ccc(/C(O)=C2/C(=O)C(=O)N(CC3CCCO3)C2c2cccc(OC)c2)cc1` (stereo not drawn) was tested, and the EC50 was > 95.1 µM (inactive).
In the case of `C/C(N)=C(/C#N)C(=O)CSc1nc2cc(Cl)ccc2s1`, the EC50 is reported as “inactive”.
For `CCOC(=O)c1cccc2c1-c1ccccc1/C2=N/O`, the EC50 was “inactive”.
With `CCOc1ccc(C(C)=O)cc1N1C(=O)C2C3C=CC(O3)C2C1=O` (stereo not drawn) the EC50 was “inactive”.
In the case of `CCC(=NC(C)c1ccccc1)c1c(O)n(C)c(=O)n(C)c1=O` (stereo not drawn), the EC50 is reported as “inactive”.
For `CC(=O)Oc1ccc(N2C(=O)C3C(C2=O)C2(C)C=CC3(C)O2)cc1` (stereo not drawn), the EC50 was “inactive”.
For `CC1=C(C(=O)OCc2ccc3c(c2)OCO3)C(c2ccccc2)NC(=O)N1` (stereo not drawn), the EC50 was 1.84 µM.
For `COC(=O)CC1SC(=O)NC1=Nc1ccccc1` (stereo not drawn), the EC50 was > 95 µM (inactive).
